# Measured values published in article PMC12053642, “Oral PRI-002 treatment in patients with MCI or mild AD: a randomized, double-blind phase 1b trial” (Nature Communications, 2025).
# “And” between values parts separate entries of the source, which are not always exact repeats. Identical values can stand only once. Square brackets hold non-standard residues; d marks the D form. Peptide text beside a SMILES is read from it.
# Assays:
# [1] = system: patients with MCI or mild dementia due to AD; test: Other tests of the CERAD+ battery (TMT-A, TMT-B, figure drawing, figure recall, clock, WMS delayed recall); format: in vivo, human; set-up: Fig Recall (Figure Recall test), mean / Clock (Clock drawing test), mean / WMS delayed recall (Wechsler Memory Scale), mean / Fig Draw (Figure Drawing test), mean / Fig Recall / Clock / WMS delayed recall / Fig Draw: scale not given here; TMT-B (Trail Making Test B), mean / TMT-A / TMT-B: unit not given here; conditions: for Clock (Clock drawing test), mean / Fig Draw (Figure Drawing test), mean / Fig Recall (Figure Recall test), mean / TMT-A (Trail Making Test A), mean / TMT-B (Trail Making Test B), mean / WMS delayed recall (Wechsler Memory Scale), mean: 300 mg q.d. oral 28 d; for Clock / Fig Draw / Fig Recall / TMT-A / TMT-B / WMS delayed recall: individual patient values, PRI-002 group
# Protocol: (§1) The effect of PRI-002 on cognition and function was tested by the CERAD+ battery and CDR-SB at baseline, Day 28, and Day 56, exploratory endpoints included the change of biomarkers (p-tau, t-tau, Aβ 1-40, Aβ 1-42 and Aβ oligomers) in CSF, blood plasma; change in CERAD+ test battery and CDR-SB scores.
# [2] = system: patients with MCI or mild dementia due to AD; test: Vital signs, physical examination, ECG and EEG; format: in vivo, human; conditions: 300 mg q.d. oral 28 d
# Protocol: For safety assessment during baseline, at Day 14, 28, and 56, laboratory parameters and vital signs were measured, a physical exam was performed, and ECGs were recorded per protocol. A safety MRI was performed at screening, a second one within 3 days after day 28 and a third one at Day 56. During baseline and at day 28, EEG measurements were performed. In addition, nature, frequency, severity, and timing of AEs and SAEs were recorded at day 14, 28, and 56. Standardized AE reports were provided and analysed by the Data Safety and Monitoring Board (DSMB).
# p-tau = test: CSF p-tau181, Lumipulse immunoassay; format: in vivo, human; conditions: Day 28, n=9, 300 mg q.d. oral 28 d
# Protocol: as §1
# [3] = system: patients with MCI or mild dementia due to AD; test: CERAD word list learning and recall; format: in vivo, human; set-up: key to WL Recall (Word list recall test), Mean / WL Recall: words recalled after delay, out of the 10-word list; key to WL learn (CERAD Word list learning), Mean / WL learn: words recalled summed over 3 trials of a 10-word list; conditions: for WL Recall / WL learn: individual patient values, PRI-002 group; for WL learn, individual patients: one line per patient
# Protocol: The CERAD Word Learning Test is a part of the CERAD cognitive test battery and assesses memory function, particularly for ADe and other dementias[34],[35]. It includes three parts: immediate recall, delayed recall, and recognition. During the test administration, a list of 10 words is read aloud three times, with the participant recalling as many as possible after each trial (immediate recall). After a delay of 5–10 min, they attempt to recall the words again (delayed recall), followed by a recognition task where they identify original words from a mixed list (recognition). The scores from the CERAD Word Learning Test are interpreted using normative data, which consider the participant’s age, gender, and education level. Normal range scores are considered between the 16th and 84th percentiles (z-score -1 to +1). For MCI scores between the 2nd and 15th percentiles (z-score -1 to -2) are expected. For significant cognitive impairment scores below the 2nd percentile (z-score < -2) are considered.
# [4] = Pharmacokinetics of PRI-002 in plasma; conditions: 300 mg q.d. oral
# Protocol: The effect on biomarker was assessed during baseline and after 28 days of medication. CSF collection and blood sampling were performed to determine PRI-002 concentration, which was conducted by Nuvisan (Neu-Ulm, Germany) and to exploratively estimate the effect of PRI-002 on the modulation of Aβ 1-40, Aβ 1-42, Aβ oligomers, total tau (t-tau), and phospho tau (p-tau). Aβ 1-40, Aβ 1-42, t-tau and p-tau181 were measured by immunoassay, using the Lumipulse platform (Fujirebio, Tokyo, Japan) and Aβ oligomers concentrations were determined using sFIDA technology[31]–[33] by attyloid GmbH (Düsseldorf, Germany). The effect of PRI-002 on cognitive and functional performance was measured by repetitively applying the CERAD+ battery and the Clinical Dementia Rating (CDR) at baseline, at Day 28 and additionally at the last visit (Day 56).
# Secondary endpoints included the evaluation of pharmacokinetic characteristics of PRI-002 by determination of maximum plasma concentration (Cmax), time to reach maximum plasma concentration (Tmax), half-life (t1/2) calculated from PRI-002 plasma concentrations; and the determination of CSF concentrations of PRI-002.
# 4 Pharmacokinetic sampling X X
# 1 Heart rate and blood pressure: Day 1: at pre-dose and 2 hours±15 minutes; Day 14 and 28: at pre-
# dose; 2 ECG Day 1: at pre-dose and 2 hours ± 15 minutes; Day 14 and 28: at pre-dose; 3 Safety
# MRI was scheduled at screening and within three days after Day 28 and Day 56;4 Pharmacokinetic
# sampling Day 1 and Day 28: at pre-dose, 30 minutes ± 15 minutes, 1 hour ± 15 minutes, 2
# hours ± 15 minutes, and 4 hours ± 15 minutes.
smiles,measurement,setting,value
CC(C)C[C@@H](NC(=O)[C@H](NC(=O)[C@H]1CCCN1)[C@H](C)O)C(=O)N[C@H](Cc1c[nH]cn1)C(=O)N[C@@H](C(=O)N[C@H](Cc1c[nH]cn1)C(=O)N[C@H](CC(N)=O)C(=O)N[C@H](CCCNC(=N)N)C(=O)N[C@H](CCCNC(=N)N)C(=O)N[C@H](CCCNC(=N)N)C(=O)N[C@H](CCCNC(=N)N)C(=O)N[C@H](CCCNC(=N)N)C(N)=O)[C@H](C)O [PRI-002] (H-[dP][dT][dL][dH][dT][dH][dN][dR][dR][dR][dR][dR]-NH2; N-terminus and C-terminus assumed),"Clock (Clock drawing test), mean","[1]; Day 1 (baseline), N=9",1.7
same,Clock,[1]; Day 1,1.0 and 2.0 and 3.0
same,Fig Draw,[1]; Day 1,11 and 9 and 10 and 8
same,Fig Recall,[1]; Day 1,2 and 4 and 7 and 0 and 6 and 5 and 11 and 8
same,TMT-A,[1]; Day 1,98 and 74 and 60 and 47 and 28 and 43 and 103 and 33 and 58
same,TMT-B,[1]; Day 1,240 and 283 and 160 and 205 and 100 and 77 and 141 and 80 and 132
same,WMS delayed recall,[1]; Day 1,5 and 0 and 4 and 14 and 30 and 7 and 28 and 2
same,"Clock (Clock drawing test), mean","[1]; Day 28, N=8",1.6
same,"Fig Draw (Figure Drawing test), mean","[1]; Day 28, N=8",10.8
same,"Fig Recall (Figure Recall test), mean","[1]; Day 28, N=8",6.9
same,"TMT-A (Trail Making Test A), mean","[1]; Day 28, N=8",58.4
same,"TMT-B (Trail Making Test B), mean","[1]; Day 28, N=8",137.5
same,"WMS delayed recall (Wechsler Memory Scale), mean","[1]; Day 28, N=8",12.8
same,Clock,[1]; Day 28,4.0 and 2.0 and 1.0
same,Fig Draw,[1]; Day 28,11 and 9
same,Fig Recall,[1]; Day 28,0 and 6 and 5 and 11 and 9 and 4
same,TMT-A,[1]; Day 28,98 and 51 and 60 and 36 and 50 and 86 and 26
same,TMT-B,[1]; Day 28,270 and 115 and 127 and 87 and 80 and 155 and 62 and 204
same,WMS delayed recall,[1]; Day 28,2 and 0 and 10 and 9 and 34 and 14 and 27 and 6
same,"Fig Draw (Figure Drawing test), mean","[1]; Day 56, N=9",10.9
same,"Fig Recall (Figure Recall test), mean","[1]; Day 56, N=9",7.4
same,"TMT-A (Trail Making Test A), mean","[1]; Day 56, N=9",53.9
same,"TMT-B (Trail Making Test B), mean","[1]; Day 56, N=9",121.9
same,"WMS delayed recall (Wechsler Memory Scale), mean","[1]; Day 56, N=9",15.0
same,Clock,[1]; Day 56,4.0 and 2.0 and 1.0 and 3.0
same,Fig Draw,[1]; Day 56,11 and 10
same,Fig Recall,[1]; Day 56,0 and 4 and 7 and 2 and 10 and 11
same,TMT-A,[1]; Day 56,70 and 79 and 45 and 88 and 28 and 40 and 51 and 30 and 54
same,TMT-B,[1]; Day 56,238 and 116 and 128 and 182 and 72 and 86 and 119 and 64 and 92
same,WMS delayed recall,[1]; Day 56,3 and 0 and 15 and 30 and 23 and 39 and 10
same,"changes on vital signs, general physical examination, ECG and EEG",[2],no significant changes
same,"p-tau, Mean",p-tau,112.4 pg/mL
same,WL Recall,[3]; Day 1,3 and 4 and 1 and 5 and 7 and 9
same,WL learn,[3]; Day 1,14 and 10 and 13 and 11 and 20 and 16 and 25
same,"WL learn (CERAD Word list learning), Mean","[3]; Day 28 (end of treatment), n=8, 300 mg q.d. oral 28 d",17.3 and 17.25
same,WL Recall,[3]; Day 28,4 and 5 and 0 and 6 and 10 and 7
same,WL learn,[3]; Day 28,15 and 14 and 12 and 16 and 25 and 17
same,"WL Recall (Word list recall test), Mean","[3]; Day 28, n=8, 300 mg q.d. oral 28 d",6.0
same,"WL learn, individual patients","[3]; Day 28, 300 mg q.d. oral 28 d",16 and 25 (2×) and 17 and 14 (2×) and 15 and 12
same,"WL learn (CERAD Word list learning), Mean","[3]; Day 56 (End of Study), n=9, PV 0.036 vs placebo (Wilcoxon), 300 mg q.d. oral 28 d",19.3 and 19.33
same,performance in the CERAD word list versus placebo,"[3]; Day 56, P ≤ 0.05, not corrected for multiplicity, 300 mg q.d. oral 28 d",significantly better
same,WL Recall,[3]; Day 56,5 and 4 and 3 and 8 and 10
same,WL learn,[3]; Day 56,18 and 16 and 17 and 24 and 30
same,"WL Recall (Word list recall test), Mean","[3]; Day 56, n=9, 300 mg q.d. oral 28 d",5.4
same,"WL learn, individual patients","[3]; Day 56, 300 mg q.d. oral 28 d",18 (3×) and 24 and 30 and 17 (2×) and 16 (2×)
same,verum treated patients with improvement of memory function in the CERAD word list test,"[3]; Day 56 versus baseline, of 9 patients, 300 mg q.d. oral 28 d",9
same,"Cohen's d effect size, WL learn, PRI-002 vs placebo","[3]; day 56, pooled SD, 300 mg q.d. oral 28 d",0.94
same,"Difference WL learn Baseline (day 1) to EoS (day 56), individual patients","[3]; one line per patient 1-9, 300 mg q.d. oral 28 d",7 and 4 (2×) and 2 and 5 and 1 and 6 and 3 (2×)
same,"PRI-002 plasma level, Mean","[4]; Day 1, 0 h, n=9, MCI/mild AD patients",0 ng/mL
same,"AUC 0-4 hours, individual patients","[4]; Day 1, one line per patient",8.54 ng·h/mL
same,"C max (PRI-002 plasma level Day 1), individual patients","[4]; Day 1, one line per patient",3.43 ng/mL and 1 ng/mL and 2.02 ng/mL and 3.03 ng/mL and 2.84 ng/mL and 10.2 ng/mL and 6.52 ng/mL and 10.4 ng/mL and 0.66 ng/mL and 0.70 ng/mL and 1.00 ng/mL
same,"T max, individual patients","[4]; Day 1, one line per patient",0.50 h (3×) and 2.00 h and 4.00 h (3×) and 1.00 h (2×)
same,Css trough,"[4]; Day 28 (n=8), Max, MCI/mild AD patients",7.45
same,"C max, individual patients","[4]; Day 28, one line per patient",1.76 ng/mL and 18.10 ng/mL and 9.37 ng/mL and 31.40 ng/mL and 2.42 ng/mL and 32.90 ng/mL and 2.24 ng/mL and 2.98 ng/mL
